US12453731B2, “Aniline-based WDR5 protein-protein interaction inhibitor, and preparation method and use thereof” (CHINA PHARMACEUTICAL UNIVERSITY, priority 2019, dated 2025)

Legend:
Hox and Meis-1 genes = assay: RT-PCR, expression of downstream Hox and Meis-1 genes at the cellular level; assay type: cell-based; conditions: FIG. 2
Source text: Furthermore, some of the compounds of the present disclosure have also been subjected to a RT-PCR experiment at the cellular level. The results of the inhibitory effect of some compounds on the expression levels of downstream Hox and Meis-1 genes at the cellular level are shown in FIG. 2.

[1] = tested on: methylation level of H3K4; assay: inhibition of the methylation level of H3K4 (methyltransferase activity); assay type: biochemical
MLL1-WDR5 PPI = MLL1-WDR5 PPI (Homo sapiens (Human), UniProt P61964); assay: fluorescent probe assay of MLL1-WDR5 protein-protein interaction inhibition; assay type: binding; conditions: fluorescent probe based on MLL1 peptide, incubation 0.5 hrs, read-out: MLL1-WDR5 PPI inhibiting activity IC50
Experimental: In the present disclosure, a fluorescent molecular probe was constructed based on a MLL1 peptide fragment binding to WDR5, for use as a method for study on an aniline compound interfering with WDR5 protein-protein interaction, to determine an inhibition rate of the aniline compound at various concentrations, and then compute the IC50 value. Specific experimental steps: 20 μL of WDR5 protein, 20 μL of a fluorescent probe, and 20 μL of a compound of different concentration gradients were added to a 384-well plate respectively. After incubation for 0.5 hrs, the fluorescence was read on a multifunctional microplate reader at an excitation wavelength of 485 nm and an emission wavelength of 535 nm, to compute the mP value. The inhibition rate was computed as per the formula below, and then the IC50 value was computed using GraphPad software.

[2] = tested on: MLL1 (H3K4me1/2/3 expression level); assay: Western blot, methyltransferase function of MLL1 at the cellular level; assay type: cell-based; conditions: FIG. 1
Source text: Moreover, some compounds have also been tested by Western-blot.

MV4-11 tumor = assay: MV4-11 nude mouse xenograft tumor model; assay type: in vivo; conditions: MV4-11 xenograft in nude mice, oral administration, FIG. 3
Source text: In addition, some of the compounds of the present disclosure have also been tested for the anti-tumor activity at the animal level. A nude mice xenograft tumor model of leukemia cells MV4-11 was selected for oral administration.

[3] = tested on: Molm-13 human acute myeloid leukemia cells; assay: anti-proliferative activity against leukemia cells Molm-13; assay type: cell-based; conditions: Homo sapiens, MOLM-13, Molm-13 cells
Source text: (§1) Some compounds of the present disclosure have also been tested for the antiproliferative activity against leukemia cells.

[4] = tested on: MV4-11 human acute mononuclear leukemia cells; assay: anti-proliferative activity against leukemia cells MV4-11; assay type: cell-based; conditions: Homo sapiens, MV4-11, MV4-11 cells; read-out: GI50 (MV-411)
Source text: as §1

Whether the methylation level of H3K4 was inhibited [1]	IC50 (MLL1-WDR5 PPI)	GI50 [3]	GI50 [4]	Structure (SMILES)	expression levels of Hox and Meis-1 genes (Hox and Meis-1 genes)	inhibition of catalytic activity of MLL1, expression level of H3K4me1/2/3 [2]	inhibition of tumor growth (MV4-11 tumor)
Yes	0.176 µM	31.2 µM	26.4 µM	CN1CCN(c2ccc(-c3ccc(NC(=O)C4CCOCC4)cc3)c(F)c2Nc2ncnc(Cl)c2N)CC1 [Example 59, N-(3″-((5-amino-6-chloropyrimidin-4-yl)amino)-2′-fluoro-4″-(4-methylpiperazin-1-yl)-[1,1′-biphenyl]-4-yl)tetrahydro-2H-pyran-4-carboxamide]	–	–	–
Yes	0.183 µM	17.6 µM	11 µM	CN1CCN(c2ccc(-c3ccc(C(=O)NCCN4CCOCC4)cc3)cc2Nc2ncnc(Cl)c2N)CC1 [Example 24, 3″-((5-amino-6-chloropyrimidin-4-yl)amino)-4″-(4-methylpiperazin-1-yl)-N-(2-morpholinoethyl)-[1,1′-biphenyl]-zole-4-carboxamide]	–	–	–
Yes	0.489 µM	22.7 µM	25.9 µM	CN1CCN(c2ccc(-c3ccc(NC(=O)C4CCOCC4)cc3)cc2Nc2ncnc(Cl)c2N)CC1 [Example 33, N-(3″-((5-amino-6-chloropyrimidin-4-yl)amino)-4″-(4-methylpiperazin-1-yl)-[1,1′-biphenyl]-4-yl)tetrahydro-2H-pyran-4-carboxamide]	–	–	–

Continued, molecule first:

Structure (SMILES)	Whether the methylation level of H3K4 was inhibited [1]	IC50 (MLL1-WDR5 PPI)	GI50 [3]	GI50 [4]	expression levels of Hox and Meis-1 genes (Hox and Meis-1 genes)	inhibition of catalytic activity of MLL1, expression level of H3K4me1/2/3 [2]	inhibition of tumor growth (MV4-11 tumor)
CN1CCN(c2cc(F)c(-c3ccc(C(=O)N(C)C)cc3)cc2Nc2ncnc(Cl)c2N)CC1 [Example 72, 5″-((5-amino-6-chloropyrimidin-4-yl)amino)-2′-fluoro-N,N-dimethyl-4″-(4-methylpiperazin-1-yl)-[1,1′-biphenyl]-4-carboxamide]	Yes	0.029 µM	13.1 µM	12.6 µM	down-regulate the expression levels of Hox and Meis-1 genes dose-dependently	inhibit the catalytic activity of MLL1 dose-dependently	inhibit the tumor growth dose-dependently
CN1CCN(c2cc(F)c(-c3ccc(C(=O)N4CCOCC4)cc3)cc2Nc2ncnc(Cl)c2N)CC1 [Example 67, (5″-((5-amino-6-chloropyrimidin-4-yl)amino)-2′-fluoro-4″-(4-methylpiperazin-1-yl)-[1,1′-biphenyl]-4-yl)(morpholino)methanone]	Yes	0.036 µM	16.5 µM	19.6 µM	–	–	–
CN1CCN(C(=O)c2ccc(-c3ccc(N4CCN(C)CC4)c(Nc4ncnc(Cl)c4N)c3)c(F)c2)CC1 [Example 38, (3″-((5-amino-6-chloropyrimidin-4-yl)amino)-2-fluoro-4″-(4-methylpiperazin-1-yl)-[1,1′-biphenyl]-4-yl)(4-methylpiperazin-1-yl)methanone]	Yes	0.652 µM	26 µM	20.8 µM	–	–	–
CC(C)C(N)C(=O)Nc1ccc(-c2ccc(N3CCN(C)CC3)c(Nc3ncnc(Cl)c3N)c2F)cc1 (centres unmarked) [Example 62, 2-amino-N-(3″-((5-amino-6-chloropyrimidin-4-yl)amino)-2′-fluoro-4″-(4-methylpiperazin-1-yl)-[1,1′biphenylyl]-4-yl)-3-methylbutyramide]	Yes	0.034 µM	22 µM	17.4 µM	–	–	–
CN1CCN(c2ccc(-c3cccc(N)c3)cc2Nc2ncnc(Cl)c2N)CC1 [Example 39, N-(3′-amino-4-(4-methylpiperazin-1-yl)-[1,1′-biphenyl]-3-yl)-6-chloropyrimidine-4,5-diamine]	Yes	0.675 µM	28.6 µM	32.2 µM	–	–	–
